Experimental data taken from patent US20210045385A1, “PYRIDAZINONE-SUBSTITUTED KETOXIMES AS HERBICIDES” (FMC Corporation, priority 2018, published 2021).

How the values were obtained:
Type in all cases: in vivo
[1] = test system: wheat (Triticum aestivum); test: Test C postemergence, visual plant response rating
Text: (§1) Seeds of plant species selected from barnyardgrass (Echinochloa crus-galli), kochia (Bassia scoparia), ragweed (common ragweed, Ambrosia artemisiifolia), Italian ryegrass (Lolium mutiflorum), foxtail, giant (giant foxtail, Setaria faberi), foxtail, green (green foxtail, Setaria viridis), and pigweed (Amaranthus retroflexus) were planted into a blend of loam soil and sand and treated preemergence with a directed soil spray using test chemicals formulated in anon-phytotoxic solvent mixture which included a surfactant.
(§2) At the same time, plants selected from these weed species and also wheat (Triticum aestivum), corn (Zea mays), blackgrass (Alopecurus myosuroides), and galium (catchweed bedstraw, Galium aparine) were planted in pots containing the same blend of loam soil and sand and treated with post emergence applications of test chemicals formulated in the same manner. Plants ranged in height from 2 to 10 cm and were in the one- to two-leaf stage for the postemergence treatment. Treated plants and untreated controls were maintained in a greenhouse for approximately 10 d, after which time all treated plants were compared to untreated controls and visually evaluated for injury. Plant response ratings, summarized in Table C, are based on a 0 to 100 scale where 0 is no effect and 100 is complete control. A dash (-)response means no test result.

[2] = test system: ragweed (common ragweed, Ambrosia artemisiifolia); test: Test C postemergence, visual plant response rating
Text: as §1, §2

[3] = test system: foxtail, giant (giant foxtail, Setaria faberi); test: Test C postemergence, visual plant response rating
Text: as §1, §2

[4] = test system: barnyardgrass (Echinochloa crus-galli); test: Test C postemergence, visual plant response rating
Text: as §1, §2

[5] = test system: corn (Zea mays); test: Test C postemergence, visual plant response rating
Text: as §1, §2

[6] = test system: galium (catchweed bedstraw, Galium aparine); test: Test C postemergence, visual plant response rating
Text: as §1, §2

[7] = test system: kochia (Bassia scoparia); test: Test C postemergence, visual plant response rating
Text: as §1, §2

[8] = test system: pigweed (Amaranthus retroflexus); test: Test C postemergence, visual plant response rating
Text: as §1, §2

[9] = test system: Italian ryegrass (Lolium mutiflorum); test: Test C postemergence, visual plant response rating
Text: as §1, §2

[10] = test system: blackgrass (Alopecurus myosuroides); test: Test C postemergence, visual plant response rating
Text: as §1, §2

[11] = test system: duck salad (Heteranthera limosa); test: Test D flooded paddy test, visual plant response rating; conditions: 250 g ai/ha, scale 0 to 100 (0 no effect, 100 complete control), 13 to 15 d
How it was run: (§3)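 2-leaf plants, flooded 3 cm, cpd into paddy water; greenhouse 13–15 d; visual rating vs controls, 0 = no effect, 100 = complete control; dash = no result.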

[12] = test system: rice (Oryza sativa); test: as above; conditions: 250 g ai/ha, scale 0 to 100 (0 no effect, 100 complete control), 13 to 15 d
How it was run: as §3

[13] = test system: sedge umbrella (small-flower umbrella sedge, Cyperus difformis); test: as above; conditions: 250 g ai/ha, scale 0 to 100 (0 no effect, 100 complete control), 13 to 15 d
How it was run: as §3

[14] = test system: barnyardgrass (Echinochloa crus-galli); test: as above; conditions: 250 g ai/ha, scale 0 to 100 (0 no effect, 100 complete control), 13 to 15 d
How it was run: as §3

[15] = test system: foxtail, giant (giant foxtail, Setaria faberi); test: Test C preemergence, visual plant response rating; conditions: Test C, 0 is no effect, 100 is complete control
How it was run: (§4)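 Compounds in a non-phytotoxic solvent with surfactant were applied as a directed soil spray preemergence or to 2–10 cm, one- to two-leaf plants postemergence, in loam–sand soil. After about 10 d in a greenhouse, injury was visually rated against untreated controls on a 0–100 scale (100 = complete control).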

[16] = test system: barnyardgrass (Echinochloa crus-galli); test: Test C preemergence, visual plant response rating; conditions: Test C, 0 is no effect, 100 is complete control
How it was run: as §4

[17] = test system: kochia (Bassia scoparia); test: Test C preemergence, visual plant response rating; conditions: Test C, 0 is no effect, 100 is complete control
How it was run: as §4

[18] = test system: pigweed (Amaranthus retroflexus); test: Test C preemergence, visual plant response rating; conditions: Test C, 0 is no effect, 100 is complete control
How it was run: as §4

[19] = test system: Italian ryegrass (Lolium mutiflorum); test: Test C preemergence, visual plant response rating; conditions: Test C, 0 is no effect, 100 is complete control
How it was run: as §4

[20] = Test C, postemergence, 125 g ai/ha

Row | SMILES | Wheat plant response rating (0 to 100 scale) ([1]; Postemergence, 31 g ai/ha) | Wheat plant response rating (0 to 100 scale) [1, 20] | Ragweed plant response rating (0 to 100 scale) ([2]; Postemergence, 31 g ai/ha) | Ragweed plant response rating (0 to 100 scale) [2, 20] | Foxtail, Giant plant response rating (0 to 100 scale) ([3]; Postemergence, 31 g ai/ha) | Foxtail, Giant plant response rating (0 to 100 scale) [3, 20] | Barnyardgrass plant response rating (0 to 100 scale) ([4]; Postemergence, 31 g ai/ha) | Barnyardgrass plant response rating (0 to 100 scale) [4, 20] | Corn plant response rating (0 to 100 scale) ([5]; Postemergence, 31 g ai/ha) | Corn plant response rating (0 to 100 scale) [5, 20] | Galium plant response rating (0 to 100 scale) ([6]; Postemergence, 31 g ai/ha) | Galium plant response rating (0 to 100 scale) [6, 20] | Kochia plant response rating (0 to 100 scale) ([7]; Postemergence, 31 g ai/ha) | Kochia plant response rating (0 to 100 scale) [7, 20] | Pigweed plant response rating (0 to 100 scale) ([8]; Postemergence, 31 g ai/ha) | Pigweed plant response rating (0 to 100 scale) [8, 20] | Ryegrass, Italian plant response rating (0 to 100 scale) ([9]; Postemergence, 31 g ai/ha) | Ryegrass, Italian plant response rating (0 to 100 scale) [9, 20] | Blackgrass plant response rating (0 to 100 scale) ([10]; Postemergence, 31 g ai/ha) | Blackgrass plant response rating (0 to 100 scale) [10, 20] | also measured
1 | C#CCO/N=C(/c1c(O)c(Cl)nn(C)c1=O)c1ccc(F)c2ccccc12 [Compound 205] | 20 | 70 | 100 | 100 | 80 | 100 | 70 | 90 | 0 | 40 | 80 | 90 | 60 | 70 | 90 | 100 | 70 | 100 | 20 | 80 | Plant response rating, Ducksalad (Flood) [11]: 0; Plant response rating, Rice (Flood) [12]: 0; Plant response rating, Sedge, Umbrella (Flood) [13]: 0; Plant response rating, Barnyardgrass (Flood) [14]: 0; Foxtail, Giant plant response rating (0 to 100 scale) ([15]; 31 g ai/ha): 80; Foxtail, Giant plant response rating (0 to 100 scale) ([15]; 125 g ai/ha): 100; Barnyardgrass plant response rating (0 to 100 scale) ([16]; 31 g ai/ha): 70; Barnyardgrass plant response rating (0 to 100 scale) ([16]; 125 g ai/ha): 100; Kochia plant response rating (0 to 100 scale) ([17]; 31 g ai/ha): 0; Kochia plant response rating (0 to 100 scale) ([17]; 125 g ai/ha): 70; Pigweed plant response rating (0 to 100 scale) ([18]; 31 g ai/ha): 80; Pigweed plant response rating (0 to 100 scale) ([18]; 125 g ai/ha): 100; Ryegrass, Italian plant response rating (0 to 100 scale) ([19]; 31 g ai/ha): 20; Ryegrass, Italian plant response rating (0 to 100 scale) ([19]; 125 g ai/ha): 100
2 | CO/N=C(/c1c(O)c(Cl)nn(C)c1=O)c1ccc(F)c2ccccc12 [Compound 207] | 0 | 0 | 30 | 90 | 30 | 70 | 20 | 60 | 30 | 10 | 90 | 100 | 60 | 70 | 50 | 80 | 20 | 80 | 30 | 20 | Plant response rating, Ducksalad (Flood) [11]: 0; Plant response rating, Rice (Flood) [12]: 0; Plant response rating, Sedge, Umbrella (Flood) [13]: 0; Plant response rating, Barnyardgrass (Flood) [14]: 0; Foxtail, Giant plant response rating (0 to 100 scale) ([15]; 31 g ai/ha): 30; Foxtail, Giant plant response rating (0 to 100 scale) ([15]; 125 g ai/ha): 90; Barnyardgrass plant response rating (0 to 100 scale) ([16]; 31 g ai/ha): 20; Barnyardgrass plant response rating (0 to 100 scale) ([16]; 125 g ai/ha): 80; Kochia plant response rating (0 to 100 scale) ([17]; 31 g ai/ha): 0; Kochia plant response rating (0 to 100 scale) ([17]; 125 g ai/ha): 60; Pigweed plant response rating (0 to 100 scale) ([18]; 31 g ai/ha): 50; Pigweed plant response rating (0 to 100 scale) ([18]; 125 g ai/ha): 80; Ryegrass, Italian plant response rating (0 to 100 scale) ([19]; 31 g ai/ha): 40; Ryegrass, Italian plant response rating (0 to 100 scale) ([19]; 125 g ai/ha): 80
3 | C#CCO/N=C(\c1c(O)c(Cl)nn(C)c1=O)c1ccc(F)c2ccccc12 [Compound 220] | 40 | 90 | 60 | 100 | 60 | 100 | 40 | 80 | 10 | 40 | 70 | 100 | 50 | 80 | 80 | 100 | 70 | 100 | 30 | 80 | Plant response rating, Ducksalad (Flood) [11]: 0; Plant response rating, Rice (Flood) [12]: 0; Plant response rating, Sedge, Umbrella (Flood) [13]: 0; Plant response rating, Barnyardgrass (Flood) [14]: 0; Foxtail, Giant plant response rating (0 to 100 scale) ([15]; 31 g ai/ha): 20; Foxtail, Giant plant response rating (0 to 100 scale) ([15]; 125 g ai/ha): 100; Barnyardgrass plant response rating (0 to 100 scale) ([16]; 31 g ai/ha): 0; Barnyardgrass plant response rating (0 to 100 scale) ([16]; 125 g ai/ha): 90; Kochia plant response rating (0 to 100 scale) ([17]; 31 g ai/ha): 0; Kochia plant response rating (0 to 100 scale) ([17]; 125 g ai/ha): 60; Pigweed plant response rating (0 to 100 scale) ([18]; 31 g ai/ha): 30; Pigweed plant response rating (0 to 100 scale) ([18]; 125 g ai/ha): 100; Ryegrass, Italian plant response rating (0 to 100 scale) ([19]; 31 g ai/ha): 30; Ryegrass, Italian plant response rating (0 to 100 scale) ([19]; 125 g ai/ha): 100
4 | CO/N=C(\c1c(OC(C)=O)c(Cl)nn(C)c1=O)c1cc(Br)cc2ccccc12 [Compound 231] | 0 | 0 | 100 | 100 | 30 | 70 | 30 | 70 | 0 | 20 | 70 | 100 | 10 | 20 | 20 | 60 | 0 | 10 | 10 | 20 | Plant response rating, Ducksalad (Flood) [11]: 75; Plant response rating, Rice (Flood) [12]: 0; Plant response rating, Sedge, Umbrella (Flood) [13]: 30; Plant response rating, Barnyardgrass (Flood) [14]: 15; Foxtail, Giant plant response rating (0 to 100 scale) ([15]; 31 g ai/ha): 30; Foxtail, Giant plant response rating (0 to 100 scale) ([15]; 125 g ai/ha): 90; Barnyardgrass plant response rating (0 to 100 scale) ([16]; 31 g ai/ha): 60; Barnyardgrass plant response rating (0 to 100 scale) ([16]; 125 g ai/ha): 90; Kochia plant response rating (0 to 100 scale) ([17]; 125 g ai/ha): 0; Pigweed plant response rating (0 to 100 scale) ([18]; 31 g ai/ha): 40; Pigweed plant response rating (0 to 100 scale) ([18]; 125 g ai/ha): 50; Ryegrass, Italian plant response rating (0 to 100 scale) ([19]; 125 g ai/ha): 0
